Entries after “also recorded” stand apart in the source; their conditions may differ.
Legend:
[1] = Activated ABTS antioxidant assay (absorbance at 405 nm, Trolox calibration); format: biochemical
Description: The Brevibacillus laterosporus fermentate was prepared as described in Example 2, using TSB media (1.7% Tryptone, 0.3% Soytone, 0.25% Glucose, 0.5% sodium chloride, 0.25% Potassium phosphate Dibasic) as the growing solution. The fermentate supernatant was first let flow through an Amicon® Ultra Centrifugal Filters with a size cutoff of 30 kDa. The permeate (which was essentially free of cells) was kept and then let flow through another Amicon® Ultra Centrifugal Filters with a size cutoff of 3 kDa. The retentate was concentrated by 10-fold in volume and stored as the final product (i.e., size is greater than 3 kDa and less than 30 kDa), referring as the concentrated fermentate in the subsequent experiments. The 10-fold concentrated fermentate was dosed separately at 2 weight percent into the serum (Table 2) and hydrogel (Table 3) formulations with xanthan gum.
The water-soluble analogue of α-Tocopherol, Trolox, is often used as a reference for characterization the antioxidant properties of a new ingredient in the assay (Reference: “Huang, S. W., Hopia, A., Schwarz, K., Frankel, E. N., & German, J. B. (1996). Antioxidant activity of α-tocopherol and trolox in different lipid substrates: bulk oils vs oil-in-water emulsions. Journal of Agricultural and Food Chemistry, 44 (2), 444-452.”).
A series of Trolox with different concentrations were used as the calibration curve for quantifying the antioxidant properties.
Table 5 summarizes the measured absorbance and the corresponding trolox equivalent (calculated from the Trolox calibration curve) of the fermentate and fermentate-dosed formulations.

[2] = Foam enhancing test (foam height in 50-ml conical tube); format: physicochemical; parameters: key: tube marking minus 10 (mL scale); 0 = no foam, 40 = maximum
Description: Foam enhancing capabilities of the Brevibacillus laterosporus A8.11 fermentate supernatant (cell free supernatant) were evaluated in the presence of different categories of surfactants and detergents commonly found in home and personal care cleaning formulations. To evaluate this, a solution of 1% zwitterionic detergent (CHAPS hydrate), 1% solution of the glycolipid biosurfactant type 1 (acidic sophorolipids non-acetylated), a 0.1% solution of glycolipid biosurfactant type 2 (lactonic (di-acetylated) sophorolipids), and 0.1% of the anionic/non-ionic detergent were each prepared with 10% cell free supernatant in a 50-ml conical tube with deionized water for a final volume of 10-mL. Control samples were prepared individually as 1% zwitterionic detergent, 1% solution of the glycolipid biosurfactant type 1, a 0.1% solution of glycolipid biosurfactant type 2, 0.1% of the anionic/non-ionic detergent and 10% cell free supernatant only in a 50-ml conical tube with deionized water for a final volume of 10-mL. All samples were shaken for 30 seconds by hand and left at room temperature to observe foam height. Foam height was measured by the marking on a 50-ml conical tube and subtracted by 10, where a value of 40 is the maximum foam height and a value of 0 indicates no foam.

[3] = tested on: Pseudomonas aeruginosa (ATCC #15442); test: Polylysine control of Pseudomonas aeruginosa with or without Acumer 4200 (visual turbidity); format: cell-based; settings: 37 C overnight
Description: The ability of Polylysine, a known cationic peptide-based food preservative, to suppress the growth of Pseudomonas aeruginosa in the presence and absence of the anionic polymer Acumer 4200 was also evaluated. The test was conducted in scintillation vials inoculated with a 1:100 dilution from an overnight of Pseudomonas aeruginosa (ATCC #15442) allowed to incubate at 37 C overnight. The readout was visual with turbidity as an indicator of Pseudomonas growth.

[4] = Foam stabilizing test (foam height in 50-ml conical tube); format: physicochemical; parameters: unit not given beside the values
Description: Foam stabilizing capabilities of the Brevibacillus laterosporus A8.11 fermentate supernatant (cell free supernatant) were evaluated in the presence of different categories of surfactants and detergents commonly found in home and personal care cleaning formulations. To evaluate this, a solution of a 1% non-ionic detergent (Tergitol 15-S-7) and a 1% solution of anionic surfactant (Sodium lauroyl sarcosinate) were each prepared with 10% cell free supernatant in a 50-ml conical tube with deionized water for a final volume of 10-mL. Control samples were prepared individually as 1% non-ionic detergent only, 1% anionic surfactant only and 10% cell free supernatant only in 50-ml conical tubes with deionized water for a final volume of 10-mL. All samples were shaken for 30 seconds by hand and left at room temperature to observe foam height. Foam height was measured by the marking on a 50-ml conical tube and subtracted by 10, where a value of 40 is the maximum foam height and a value of 0 indicates no foam. Foam stabilization was defined as the ability to maintain the starting foam height over multiple timepoints.

[5] = Time 0, 10-mL in deionized water, shaken 30 seconds, 40 = maximum

Molecule | Foam Height [2, 5] | Foam Height ([2]; Time 1 min) | Foam Height ([2]; Time 5 min) | Foam Height ([2]; Time 15 min) | Foam Height ([2]; Time 30 min) | Foam Height ([2]; Time 3 hours) | Foam Height ([2]; Time 24 hours) | also measured
Cc1c(C)c2c(c(C)c1O)CCC(C)(C(=O)O)O2 (stereo not drawn) [Trolox] | – | – | – | – | – | – | – | Measured absorbance ([1]; Trolox 4.7 μM): 1.16; Measured absorbance ([1]; Trolox 9.4 μM): 1.13; Measured absorbance ([1]; Trolox 18.75 μM): 1.09; Measured absorbance ([1]; Trolox 37.5 μM): 0.97; Measured absorbance ([1]; Trolox 75 μM): 0.77; Measured absorbance ([1]; Trolox 150 μM): 0.38
C[C@H](CCC(=O)NCCC[N+](C)(C)CCCS(=O)(=O)[O-])[C@H]1CC[C@H]2[C@@H]3[C@H](O)C[C@@H]4C[C@H](O)CC[C@]4(C)[C@H]3C[C@H](O)[C@]12C.O [Zwitterionic Detergent, CHAPS hydrate] | 15 | 2.5 | 0 | 0 | 0 | 0 | 0 | –
Polylysine | – | – | – | – | – | – | – | Visual Inspection ([3]; TSB growth medium with Acumer 4200 and polylysine): does not function as an antimicrobial; also recorded: Turbid; Visual Inspection ([3]; TSB growth medium with the substance alone): able to suppress microbial growth; also recorded: Clear (polylysine prevented growth)
Tergitol 15-S-7 [Non-ionic Detergent] | – | – | – | – | – | – | – | Foam Height [4, 5]: 37.5; Foam Height ([4]; Time 1 min): 37.5; Foam Height ([4]; Time 5 min): 36; Foam Height ([4]; Time 15 min): 22.5; Foam Height ([4]; Time 30 min): 20; Foam Height ([4]; Time 3 hours): 14; Foam Height ([4]; Time 24 hours): 2
acidic sophorolipids non-acetylated [Glycolipid Biosurfactant Type-1] | 2.5 | 1 | 1 | 1 | 1 | 0 | 0 | –
lactonic (di-acetylated) sophorolipids [Glycolipid Biosurfactant Type-2] | 2.5 | 2.5 | 2 | 1 | 1 | 0 | 0 | –
